pIC50: −log10 of the molar value.

The experiment addresses T1, hTLR9 (Homo sapiens, UniProt Q9NR96).
T1 sequence (Q9NR96 26-1032): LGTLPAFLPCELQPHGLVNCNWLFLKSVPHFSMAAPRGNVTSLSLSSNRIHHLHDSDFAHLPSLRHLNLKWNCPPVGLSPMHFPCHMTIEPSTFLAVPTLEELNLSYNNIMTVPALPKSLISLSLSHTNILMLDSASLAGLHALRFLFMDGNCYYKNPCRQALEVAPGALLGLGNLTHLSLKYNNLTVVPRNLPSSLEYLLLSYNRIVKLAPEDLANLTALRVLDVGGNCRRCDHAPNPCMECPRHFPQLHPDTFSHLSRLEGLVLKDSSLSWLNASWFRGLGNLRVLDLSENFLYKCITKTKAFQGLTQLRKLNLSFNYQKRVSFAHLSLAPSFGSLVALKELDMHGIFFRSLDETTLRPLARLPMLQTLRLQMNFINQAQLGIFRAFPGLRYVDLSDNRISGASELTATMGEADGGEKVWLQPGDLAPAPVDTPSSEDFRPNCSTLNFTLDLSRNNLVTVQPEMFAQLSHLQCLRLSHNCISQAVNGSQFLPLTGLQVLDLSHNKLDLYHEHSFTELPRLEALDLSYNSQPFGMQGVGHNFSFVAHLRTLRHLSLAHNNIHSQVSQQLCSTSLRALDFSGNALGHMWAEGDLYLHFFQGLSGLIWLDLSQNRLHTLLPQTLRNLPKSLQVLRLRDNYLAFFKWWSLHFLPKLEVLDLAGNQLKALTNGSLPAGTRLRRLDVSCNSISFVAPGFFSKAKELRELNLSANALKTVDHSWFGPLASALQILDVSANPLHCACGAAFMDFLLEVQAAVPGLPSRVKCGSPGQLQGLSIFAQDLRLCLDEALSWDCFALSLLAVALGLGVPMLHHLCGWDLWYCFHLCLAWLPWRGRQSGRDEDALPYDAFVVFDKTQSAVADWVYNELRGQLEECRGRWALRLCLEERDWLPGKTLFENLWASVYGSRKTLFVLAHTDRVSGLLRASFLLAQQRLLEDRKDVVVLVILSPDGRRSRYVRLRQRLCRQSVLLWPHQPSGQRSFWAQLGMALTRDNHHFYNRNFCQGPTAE
Description: HEK293-Blue-hTLR-9 cells assay (SEAP reporter, ODN2006 stimulation). The experiment is classed as cell-based. Further details: host or cells: HEK293 (HEK-Blue hTLR9). The settings on record: HEK293-Blue-hTLR9 cells, ODN2006, 20 hrs; read-out: HEK/hTLR9 IC50. The text has this:
HEK293-Blue-hTLR-9 Cells Assay:
A stable HEK293-Blue-hTLR-9 cell line was purchased from InvivoGen (Cat. #: hkb-htlr9, San Diego, Calif., USA). These cells were originally designed for studying the stimulation of human TLR9 by monitoring the activation of NF-κB. A SEAP (secreted embryonic alkaline phosphatase) reporter gene was placed under the control of the IFN-β minimal promoter fused to five NF-κB and AP-1-binding sites. The SEAP was induced by activating NF-κB and AP-1 via stimulating HEK-Blue hTLR9 cells with TLR9 ligands. Therefore the reporter expression was declined by TLR9 antagonist under the stimulation of a ligand, such as ODN2006 (Cat. #: tlrl-2006-1, Invivogen, San Diego, Calif., USA), for incubation of 20 hrs. The cell culture supernatant SEAP reporter activity was determined using QUANTI-Blue™ kit (Cat. #: rep-qb1, Invivogen, San Diego, Calif., USA) at a wavelength of 640 nm, a detection medium that turns purple or blue in the presence of alkaline phosphatase.
HEK293-Blue-hTLR9 cells were incubated at a density of 250,000˜450,000 cells/mL in a volume of 170 μL in a 96-well plate in Dulbecco's Modified Eagle's medium (DMEM) containing 4.5 g/L glucose, 50 U/mL penicillin, […], 2 mM L-glutamine, 10% (v/v) heat-inactivated fetal bovine serum with addition of 20 μL test compound in a serial dilution in the presence of final DMSO at 1% and 10 μL of 20 uM ODN2006 in above DMEM, perform incubation under 37° C. in a CO2 incubator for 20 hrs. Then 20 μL of the supernatant from each well was incubated with 180 μL Quanti-blue substrate solution at 37° C. for 2 h and the absorbance was read at 620-655 nm using a spectrophotometer. The signaling pathway that TLR9 activation leads to downstream NF-κB activation has been widely accepted, and therefore similar reporter assay was modified for evaluating TLR9 antagonist.
Take `COC1CN(c2nccc(N3CCN(C[C@H]4CN(c5ccc(C#N)c6ncccc56)C[C@@H](C)O4)CC3)n2)CC1N` (stereo in doubt) [Example 93, 5-[(2S,6R)-2-[[4-[2-[(3R,4S)-3-amino-4-methoxy-pyrrolidin-1-yl]pyrimidin-4-yl]piperazin-1-yl]methyl]-6-methyl-morpholin-4-yl]quinoline-8-carbonitrile]: the pIC50 was 7.51. To `C[C@@H]1CN(c2ccc(C#N)c3ncccc23)C[C@H](CN2CCN(c3ccc(CN)cc3)CC2)O1` [Example 5, 5-[(2S,6R)-2-[[4-[4-(aminomethyl)phenyl]piperazin-1-yl]methyl]-6-methyl-morpholin-4-yl]quinoline-8-carbonitrile] belongs 6.70; to `C[C@@H]1CN(c2ccc(C#N)c3ncccc23)C[C@H](CN2CCN(c3cnc(N4CCNCC4)cn3)CC2)O1` [Example 6, 5-[(2R,6S)-2-methyl-6-[[4-(5-piperazin-1-ylpyrazin-2-yl)piperazin-1-yl]methyl]morpholin-4-yl]quinoline-8-carbonitrile], 6.92; to `COc1cc(N2CCN(C[C@H]3CN(c4ccc(C#N)c5ncccc45)C[C@@H](C)O3)CC2)nc(N2CCNCC2)n1` [Example 91, 5-[(2S,6R)-2-[[4-(6-methoxy-2-piperazin-1-yl-pyrimidin-4-yl)piperazin-1-yl]methyl]-6-methyl-morpholin-4-yl]quinoline-8-carbonitrile], 6.99. Consider `CO[C@@H]1CN(c2nccc(N3CCN(C[C@H]4CN(c5ccc(C#N)c6ncccc56)C[C@@H](C)O4)CC3)n2)C[C@@H]1N` [Example 92, 5-[(2S,6R)-2-[[4-[2-[(3S,4R)-3-amino-4-methoxy-pyrrolidin-1-yl]pyrimidin-4-yl]piperazin-1-yl]methyl]-6-methyl-morpholin-4-yl]quinoline-8-carbonitrile], for which the pIC50 was 7.38.

In the case of `C[C@@H]1CN(c2ccc(C#N)c3ncccc23)C[C@H](CN2CCN(c3ncc(F)c(N4CCNCC4)n3)CC2)O1` [Example 94, 5-[(2S,6R)-2-[[4-(5-fluoro-4-piperazin-1-yl-pyrimidin-2-yl)piperazin-1-yl]methyl]-6-methyl-morpholin-4-yl]quinoline-8-carbonitrile], the pIC50 was 7.29. To `C[C@@H]1CN(c2ccc(C#N)c3ncccc23)C[C@H](CN2CCN(c3ccnc(N4C[C@@H](F)[C@@H](N)C4)n3)CC2)O1` [Example 95, 5-[(2S,6R)-2-[[4-[2-[(3S,4R)-3-amino-4-fluoro-pyrrolidin-1-yl]pyrimidin-4-yl]piperazin-1-yl]methyl]-6-methyl-morpholin-4-yl]quinoline-8-carbonitrile] belongs 7.51; to `C[C@@H]1CN(c2ccc(C#N)c3ncccc23)C[C@H](CN2CCN(c3ccnc(N4C[C@@H](N)[C@H](F)C4)n3)CC2)O1` [Example 96, 5-[(2S,6R)-2-[[4-[2-[(3R,4R)-3-amino-4-fluoro-pyrrolidin-1-yl]pyrimidin-4-yl]piperazin-1-yl]methyl]-6-methyl-morpholin-4-yl]quinoline-8-carbonitrile], 6.96. To `CO[C@H]1CN(c2ccnc(N3CCN(C[C@H]4CN(c5ccc(C#N)c6ncccc56)C[C@@H](C)O4)CC3)n2)C[C@@H]1N` [Example 97, 5-[(2S,6R)-2-[[4-[4-[(3S,4S)-3-amino-4-methoxy-pyrrolidin-1-yl]pyrimidin-2-yl]piperazin-1-yl]methyl]-6-methyl-morpholin-4-yl]quinoline-8-carbonitrile] belongs 7.47.

With `CO[C@@H]1CN(c2nccc(N3CCN(C[C@H]4CN(c5ccc(C#N)c6nccnc56)C[C@@H](C)O4)CC3)n2)C[C@H]1N` [Example 98, 8-[(2S,6R)-2-[[4-[2-[(3R,4R)-3-amino-4-methoxy-pyrrolidin-1-yl]pyrimidin-4-yl]piperazin-1-yl]methyl]-6-methyl-morpholin-4-yl]quinoxaline-5-carbonitrile], the pIC50 was 7.31. To `CO[C@H]1CN(c2nccc(N3CCN(C[C@H]4CN(c5ccc(C#N)c6nccnc56)C[C@@H](C)O4)CC3)n2)C[C@@H]1N` [Example 99, 8-[(2S,6R)-2-[[4-[2-[(3S,4S)-3-amino-4-methoxy-pyrrolidin-1-yl]pyrimidin-4-yl]piperazin-1-yl]methyl]-6-methyl-morpholin-4-yl]quinoxaline-5-carbonitrile] belongs 7.20; to `C[C@@H]1CN(c2ccc(C#N)c3ncccc23)C[C@H](CN2CCN(c3ccnc(N4C[C@@H](N)[C@@H](F)C4)n3)CC2)O1` [Example 101, 5-[(2S,6R)-2-[[4-[2-[(3R,4S)-3-amino-4-fluoro-pyrrolidin-1-yl]pyrimidin-4-yl]piperazin-1-yl]methyl]-6-methyl-morpholin-4-yl]quinoline-8-carbonitrile], 7.51.

On to `Cc1cnc(N2CCN(C[C@H]3CN(c4ccc(C#N)c5ncccc45)C[C@@H](C)O3)CC2)nc1N1CCNCC1` [Example 102, 5-[(2R,6S)-2-methyl-6-[[4-(5-methyl-4-piperazin-1-yl-pyrimidin-2-yl)piperazin-1-yl]methyl]morpholin-4-yl]quinoline-8-carbonitrile], for which the pIC50 was 7.10.

On to `C[C@@H]1CN(c2ccc(C#N)c3ncccc23)C[C@H](CN2CCN(c3ccnc(N4C[C@H]5NCCO[C@@H]5C4)n3)CC2)O1` [Example 103, 5-[(2S,6R)-2-[[4-[2-[(4aR,7aR)-3,4,4a,5,7,7a-hexahydro-2H-pyrrolo[3,4-b][1,4]oxazin-6-yl]pyrimidin-4-yl]piperazin-1-yl]methyl]-6-methyl-morpholin-4-yl]quinoline-8-carbonitrile], for which the pIC50 was 7.00. To `C[C@@H]1CN(c2ccc(C#N)c3nccnc23)C[C@H](CN2CCN(c3ccnc(N4C[C@@H](N)[C@@H](F)C4)n3)CC2)O1` [Example 108, 8-[(2S,6R)-2-[[4-[2-[(3R,4S)-3-amino-4-fluoro-pyrrolidin-1-yl]pyrimidin-4-yl]piperazin-1-yl]methyl]-6-methyl-morpholin-4-yl]quinoxaline-5-carbonitrile] belongs 7.17; to `COC1CCN(c2nccc(N3CCN(C[C@H]4CN(c5ccc(C#N)c6ncccc56)C[C@@H](C)O4)CC3)n2)CC1N` (stereo partly drawn) [Example 109, 5-[(2S,6R)-2-[[4-[2-(3-amino-4-methoxy-1-piperidyl)pyrimidin-4-yl]piperazin-1-yl]methyl]-6-methyl-morpholin-4-yl]quinoline-8-carbonitrile], 7.34.

With `C[C@@H]1CN(c2ccc(C#N)c3nccnc23)C[C@H](CN2CCN(c3ccnc(N4CC[C@H](N)[C@H](F)C4)n3)CC2)O1` [Example 111, 8-[(2S,6R)-2-[[4-[2-[(3R,4S)-4-amino-3-fluoro-1-piperidyl]pyrimidin-4-yl]piperazin-1-yl]methyl]-6-methyl-morpholin-4-yl]quinoxaline-5-carbonitrile], the pIC50 is 7.43. To `C[C@@H]1CN(c2ccc(C#N)c3nccnc23)C[C@H](CN2CCN(c3ccnc(N4CC[C@@H](N)[C@H](F)C4)n3)CC2)O1` [Example 113, 8-[(2S,6R)-2-[[4-[2-[(3R,4R)-4-amino-3-fluoro-1-piperidyl]pyrimidin-4-yl]piperazin-1-yl]methyl]-6-methyl-morpholin-4-yl]quinoxaline-5-carbonitrile] belongs 7.01.
